Reference: the NIST ThermoML archive (doi:10.1021/je060228n)
Numbers after ± are expanded uncertainties.

What was measured:
[1] = refractive index (Na D-line) (dimensionless); xn = mol fraction of the nth substance listed; conditions: 298.15 K, 101 kPa, Liquid
[2] = xn = mol fraction of the nth substance listed; conditions: 101 kPa, Liquid

CCOS(=O)(=O)[O-].CCn1cc[n+](C)c1 [1-ethyl-3-methylimidazolium ethyl sulfate] + CCO
[1]
Conditions	refractive index
x2 = 0	1.4794 ± 0.0014
x2 = 0.0623	1.47717 ± 0.0014
x2 = 0.23	1.47031 ± 0.0014
x2 = 0.4113	1.46017 ± 0.0014
x2 = 0.5393	1.45018 ± 0.0014
x2 = 0.6788	1.43532 ± 0.0014
x2 = 0.7662	1.42247 ± 0.0014
x2 = 0.8303	1.41052 ± 0.0014
x2 = 0.9554	1.37687 ± 0.0014
x2 = 0.964	1.37373 ± 0.0014
x2 = 0.9863	1.36514 ± 0.0014

[2]
Conditions	mass density, 298.15 K [kg/m3]	mass density, 313.15 K [kg/m3]	mass density, 328.15 K [kg/m3]	speed of sound, 298.15 K [m/s]	speed of sound, 313.15 K [m/s]	speed of sound, 328.15 K [m/s]	viscosity, 298.15 K [mPa·s]	viscosity, 313.15 K [mPa·s]	viscosity, 328.15 K [mPa·s]
x2 = 0	1237.63 ± 1.3	1227.51 ± 1.3	1217.47 ± 1.2	1679 ± 13	1641.6 ± 13	1604.5 ± 12	97.58 ± 4.5	50.01 ± 0.52	29.18 ± 0.58
x2 = 0.0623	1228.9 ± 1.2	1218.87 ± 1.2	1208.77 ± 1.2	1669.8 ± 13	1633.6 ± 13	1594.8 ± 12	79.12 ± 2.6	42.18 ± 0.8	25.36 ± 0.49
x2 = 0.23	1201.26 ± 1.1	1191.17 ± 1	1181.01 ± 1	1626.6 ± 13	1590.1 ± 12	1551 ± 12	44.93 ± 0.81	26.19 ± 0.49	16.84 ± 0.32
x2 = 0.4113	1161.68 ± 0.88	1151.32 ± 0.85	1140.94 ± 0.81	1564 ± 12	1527.7 ± 12	1488.2 ± 12	22.96 ± 0.42	14.72 ± 0.28	10.14 ± 0.2
x2 = 0.5393	1123.63 ± 0.73	1113 ± 0.7	1102.3 ± 0.67	1506.5 ± 12	1459.1 ± 12	1431.1 ± 11	13.58 ± 0.26	8.577 ± 0.17	6.204 ± 0.13
x2 = 0.6788	1066.7 ± 0.52	1055.7 ± 0.49	1044.7 ± 0.46	1428.8 ± 11	1381 ± 11	1350.7 ± 11	7.224 ± 0.15	5.208 ± 0.12	3.934 ± 0.089
x2 = 0.7662	1017.9 ± 0.36	1006.6 ± 0.33	995.2 ± 0.33	1367.2 ± 11	1318.9 ± 11	1286.7 ± 10	4.598 ± 0.1	3.413 ± 0.077	2.642 ± 0.061
x2 = 0.8303	973 ± 0.39	961.3 ± 0.4	949.6 ± 0.46	1315.6 ± 11	1266.2 ± 10	1232.2 ± 10	3.178 ± 0.072	2.398 ± 0.055	1.874 ± 0.044
x2 = 0.9554	848.6 ± 0.73	836.2 ± 0.8	823.5 ± 0.8	1195.9 ± 9.9	1143.3 ± 9.6	1102.6 ± 9.3	1.573 ± 0.037	1.2 ± 0.029	0.941 ± 0.025
x2 = 0.964	837.4 ± 0.77	824.7 ± 0.8	812 ± 0.8	1186.2 ± 9.8	1132.7 ± 9.5	1091.4 ± 9.2	1.427 ± 0.034	1.095 ± 0.027	0.862 ± 0.023
x2 = 0.9863	806.1 ± 0.86	793.4 ± 0.9	780.3 ± 0.9	1160.7 ± 9.7	1106.2 ± 9.3	1063.1 ± 9.1	1.271 ± 0.031	0.971 ± 0.025	0.759 ± 0.022
